Laboratory results taken from US6001880A, “Alkylenediamine derivative, anti-ulcer drug, and antibacterial drug” (Shiseido Co., Ltd., priority 1997, dated 1999).

Key:
[1] = test system: isolated gastric fundic gland; experiment: CAP: Acid Secretion Inhibition Test In Vitro ([14C]-aminopyrine uptake); format: cell-based, rabbit (male Japanese White); settings: Oryctolagus cuniculus; final concentration 10^-5 M; histamine 10^-5 M stimulation; read-out: CAP: acid secretion inhibitory rate
Summary of the method: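 Collagenase-isolated rabbit gastric fundic glands (1.6×10^6 cells/ml) were stimulated with 10^-5 M histamine in the presence of test compound and [14C]-aminopyrine, then shaken 40 min at 37 °C. Pellet versus supernatant radioactivity, corrected with a 20 mM NaSCN sample, gives specific aminopyrine accumulation as the acid-secretion index; duplicates.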

[2] = test system: mice; parameters: species or system mouse (male Slc:ICR); settings: mouse, in vivo
Method: AT: Single Dose Toxicity Pretest
Male Slc:ICR mice (5-week-old) were used. Each group has 3 to 5 mice and each mouse was fasted, but allowed free access to water, for 4 to 5 hours from 9 a.m. in the test day. Then, 2,000 mg/10 ml/kg of the sample compound dissolved or suspended in an aqueous solution of 0.5% sodium carboxymethyl cellulose was orally administered thereto. To a control, only the vehicle was administered. […] The body weight was measured before and after the fasting as well as at the same time everyday. The dead animals were immediately subjected to autopsy and their organs were observed by naked eyes. Also, the living animals were sacrificed with ether or carbon dioxide one week after the administration and then their organs were observed by naked eyes.
The toxicity at the single dose of 2,000 mg/kg of the sample compound was expressed as being classified into 5 levels.
5: mortality rate is 0%; no toxicity is found at all both in behavior and organs.
4: Mortality rate is 0%; while no toxicity is found in organs, slight toxicity is observed in behavior or body weight increase.
3: While there is a dead animal (though not all the animals are dead), no toxicity is found in organs.
2: Regardless of whether there is a dead animal or not, toxicity is found in organs.
1: All the animals are dead.

SMILES	inhibition at 10 µM [1] [%]	AT: single dose toxicity level [2]
CC(C)=CCC/C(C)=C/COc1ccc(OC/C=C(\C)CCC=C(C)C)c(C(=O)NCCN(C(C)C)C(C)C)c1 [Example 17]	100	5
CCN(CC)CCNC(=O)c1cc(OC/C=C(\C)CCC=C(C)C)ccc1OC/C=C(\C)CCC=C(C)C [Example 16]	100	5
COc1cc(C(=O)NCCN(C)C)cc(OC/C=C(\C)CCC=C(C)C)c1OC [Example 42]	98.6	3
CCN(CC)CCNC(=O)c1cc(OC)c(OC/C=C(/C)CCC=C(C)C)c(OC)c1 [Example 38]	99.8	5
CCN(CC)CCNC(=O)c1cc(OC)c(OC/C=C(\C)CCC=C(C)C)c(OC)c1 [Example 37]	99.3	4
CCN(CC=C(C)C)c1ccc(C(=O)NCCN(C(C)C)C(C)C)cc1 [Example 28]	27.3	–
CCN(CC)CCNC(=O)c1cc(OCC=C(C)C)cc(OCC=C(C)C)c1 [Example 14]	100	5
